Test results from patent US10858362B2, “Imidazopyrazinones as PDE1 inhibitors” (H. Lundbeck A/S, priority 2015, dated 2020).

What was measured:
Format in all cases: biochemical
PDE9 = PDE9 (Homo sapiens (Human), UniProt O76083); assay: PDE9 inhibition assay
Procedure, shortened: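 Human PDE9 in 50 mM HEPES pH 7.6, 10 mM MgCl2, 0.02% Tween20, enzyme set to convert 20-25% of 10 nM ^3H-cAMP substrate; inhibitors at varying amounts. 1 hr incubation, stopped with yttrium silicate SPA beads, settled 1 hr in dark, then scintillation counted.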

PDE1B = PDE1B (Homo sapiens (Human), UniProt Q01064); assay: PDE1 inhibition assay, PDE1B; conditions: for IC50: 15 nM tritium labelled cAMP
PDE1B, sequence (Q01064 whole entry): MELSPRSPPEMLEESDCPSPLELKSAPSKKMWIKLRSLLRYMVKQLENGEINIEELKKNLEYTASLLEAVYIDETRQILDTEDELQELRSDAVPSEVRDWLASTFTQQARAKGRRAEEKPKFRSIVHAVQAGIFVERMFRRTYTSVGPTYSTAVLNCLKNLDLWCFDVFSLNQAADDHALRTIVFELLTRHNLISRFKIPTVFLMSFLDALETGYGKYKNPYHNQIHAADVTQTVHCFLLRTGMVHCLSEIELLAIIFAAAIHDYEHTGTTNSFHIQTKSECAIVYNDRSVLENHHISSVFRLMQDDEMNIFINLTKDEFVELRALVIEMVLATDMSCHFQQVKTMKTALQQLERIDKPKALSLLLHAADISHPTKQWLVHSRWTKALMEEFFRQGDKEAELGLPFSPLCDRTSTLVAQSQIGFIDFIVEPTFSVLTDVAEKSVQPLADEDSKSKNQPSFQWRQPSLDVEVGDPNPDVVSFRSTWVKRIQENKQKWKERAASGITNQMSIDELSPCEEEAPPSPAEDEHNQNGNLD
Experimental: (§1) Reactions were initiated by addition of the cyclic nucleotide substrate, and reactions were allowed to proceed for 1 h at room temperature before being terminated through mixing with 20 μL (0.2 mg) yttrium silicate SPA beads (PerkinElmer). The beads were allowed to settle for 1 h in the dark before the plates were counted in a Wallac 1450 Microbeta counter.

PDE1C = PDE1C (Homo sapiens (Human), UniProt Q14123); assay: PDE1 inhibition assay, PDE1C; conditions: 15 nM tritium labelled cAMP
PDE1C, sequence (Q14123 whole entry): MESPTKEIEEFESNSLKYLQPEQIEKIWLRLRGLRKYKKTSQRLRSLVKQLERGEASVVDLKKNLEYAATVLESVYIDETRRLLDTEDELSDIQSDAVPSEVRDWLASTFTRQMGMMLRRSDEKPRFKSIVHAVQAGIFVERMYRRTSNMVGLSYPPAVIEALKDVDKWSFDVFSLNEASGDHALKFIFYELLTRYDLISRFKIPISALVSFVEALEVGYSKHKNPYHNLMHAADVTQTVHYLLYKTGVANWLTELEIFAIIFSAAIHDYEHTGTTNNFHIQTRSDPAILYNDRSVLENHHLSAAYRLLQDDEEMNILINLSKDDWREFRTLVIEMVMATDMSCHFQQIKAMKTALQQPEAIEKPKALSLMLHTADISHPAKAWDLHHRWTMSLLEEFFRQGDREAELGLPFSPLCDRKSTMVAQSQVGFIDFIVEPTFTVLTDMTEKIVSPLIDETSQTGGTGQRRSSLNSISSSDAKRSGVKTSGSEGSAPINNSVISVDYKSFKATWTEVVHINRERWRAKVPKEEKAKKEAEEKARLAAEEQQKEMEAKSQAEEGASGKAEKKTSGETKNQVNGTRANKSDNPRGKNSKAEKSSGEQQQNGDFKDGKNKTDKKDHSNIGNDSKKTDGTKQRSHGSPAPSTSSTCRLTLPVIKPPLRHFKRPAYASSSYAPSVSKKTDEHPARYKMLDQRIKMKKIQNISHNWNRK
Experimental: as §1

PDE1A = PDE1A (Homo sapiens (Human), UniProt P54750); assay: PDE1 inhibition assay, PDE1A; conditions: for IC50: 15 nM tritium labelled cAMP
PDE1A, sequence (P54750 whole entry): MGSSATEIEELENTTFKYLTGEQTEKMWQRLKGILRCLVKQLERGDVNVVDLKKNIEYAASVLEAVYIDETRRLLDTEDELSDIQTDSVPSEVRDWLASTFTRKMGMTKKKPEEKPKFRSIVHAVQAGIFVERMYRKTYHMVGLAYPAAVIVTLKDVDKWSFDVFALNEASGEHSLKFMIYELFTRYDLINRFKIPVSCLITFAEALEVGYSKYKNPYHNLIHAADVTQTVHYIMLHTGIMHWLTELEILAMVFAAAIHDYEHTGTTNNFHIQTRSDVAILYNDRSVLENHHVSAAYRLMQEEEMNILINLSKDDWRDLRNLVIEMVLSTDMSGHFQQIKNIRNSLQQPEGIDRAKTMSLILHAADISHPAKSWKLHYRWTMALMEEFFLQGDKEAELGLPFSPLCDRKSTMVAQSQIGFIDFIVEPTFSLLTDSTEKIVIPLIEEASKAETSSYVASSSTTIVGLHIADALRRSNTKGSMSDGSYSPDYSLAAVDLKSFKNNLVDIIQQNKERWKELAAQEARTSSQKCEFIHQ
Experimental: Reactions were initiated by addition of the cyclic nucleotide substrate, and reactions were allowed to proceed for 1 h at room temperature before being terminated through mixing with 20 μL (0.2 mg) yttrium silicate SPA beads (PerkinElmer).

PDE9, sequence (O76083 whole entry): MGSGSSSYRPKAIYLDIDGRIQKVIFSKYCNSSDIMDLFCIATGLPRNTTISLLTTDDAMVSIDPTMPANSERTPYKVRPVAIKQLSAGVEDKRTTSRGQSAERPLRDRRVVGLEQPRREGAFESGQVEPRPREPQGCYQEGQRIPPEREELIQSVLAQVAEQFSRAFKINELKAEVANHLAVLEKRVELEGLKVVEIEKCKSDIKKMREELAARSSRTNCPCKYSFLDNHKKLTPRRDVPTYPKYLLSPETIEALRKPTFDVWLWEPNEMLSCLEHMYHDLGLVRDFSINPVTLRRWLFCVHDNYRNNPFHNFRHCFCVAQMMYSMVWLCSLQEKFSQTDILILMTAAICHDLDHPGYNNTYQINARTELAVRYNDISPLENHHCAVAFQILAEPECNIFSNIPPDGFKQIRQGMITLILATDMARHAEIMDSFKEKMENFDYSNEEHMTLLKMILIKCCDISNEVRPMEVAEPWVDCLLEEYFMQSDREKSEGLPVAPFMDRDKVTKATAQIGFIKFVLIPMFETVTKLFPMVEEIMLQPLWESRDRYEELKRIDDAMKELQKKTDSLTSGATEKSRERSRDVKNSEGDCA

Row | SMILES | % inhibition of PDE9 at 10 microM (PDE9) | IC50 (PDE1B) | IC50 (PDE1C) | PDE1A, % inhibition (at 1 μM) (PDE1A; at 1 μM) | IC50 (PDE1A) | inhibition at 10 µM (PDE9) | inhibition at 1 µM (PDE1B; read-out: PDE1B, % inhibition (at 1 μM)) | percent inhibition of PDE1A at 2 µM (PDE1A; at 2 μM, % sign not given)
1 | Cc1cn2c([C@H]3C[C@H]3C)ncc2c(=O)n1Cc1cccc(F)c1 (single isomer, unassigned; isomer 4) [35, isomer 4] | 5% | 360 nM | 85 nM | 43% | – | – | – | –
2 | CO[C@H]1CC[C@@H](Cn2c(C)cn3c(C4CCOCC4)ncc3c2=O)CC1 [Example 67, 7-(((cis)-4-methoxycyclohexyl)methyl)-6-methyl-3-(tetrahydro-2H-pyran-4-yl)imidazo[1,5-a]pyrazin-8(7H)-one] | – | 87 nM | 307 nM | – | 234 nM | 10% | – | –
3 | Cc1cn2c(C3CCOCC3)ncc2c(=O)n1Cc1ccc(OC2CC2)cc1 [Example 39, 7-(4-cyclopropoxybenzyl)-6-methyl-3-(tetrahydro-2H-pyran-4-yl)imidazo[1,5-a]pyrazin-8(7H)-one] | – | 118 nM | 364 nM | – | 413 nM | 23% | – | –
4 | CCc1ccccc1Cn1c(C)cn2c(C3CCOCC3)ncc2c1=O [Example 49, 7-(2-ethylbenzyl)-6-methyl-3-(tetrahydro-2H-pyran-4-yl)imidazo[1,5-a]pyrazin-8(7H)-one] | – | – | 173 nM | – | – | 1% | 60% | 44
5 | Cc1cc(Cn2c(C)cn3c(C4CCOCC4)ncc3c2=O)on1 [Example 83, 6-methyl-7-((3-methylisoxazol-5-yl)methyl)-3-(tetrahydro-2H-pyran-4-yl)imidazo[1,5-a]pyrazin-8(7H)-one] | – | 2290 nM | 1610 nM | – | 4440 nM | -4% | – | –
6 | Cc1cn2c(C3CCOCC3)ncc2c(=O)n1Cc1ccc(OC(F)(F)F)cc1 [Example 41, 6-methyl-3-(tetrahydro-2H-pyran-4-yl)-7-(4-(trifluoromethoxy)benzyl)imidazo[1,5-a]pyrazin-8(7H)-one] | – | 18 nM | 52 nM | – | 27 nM | -22% | – | –
7 | Cc1cn2c(C3CC3(F)F)ncc2c(=O)n1Cc1cccc(F)c1 (stereo not drawn) [Example 34, 3-(2,2-difluorocyclopropyl)-7-(3-fluorobenzyl)-6-methylimidazo[1,5-a]pyrazin-8(7H)-one] | – | 359 nM | 93 nM | – | 331 nM | 0% | – | –
8 | Cc1cn2c(C3CCOCC3)ncc2c(=O)n1C[C@H]1CC[C@H](C)CC1 [66, trans] | −2% | 11 nM | 46 nM | – | 35 nM | – | – | –
9 | CCn1c(C)cn2c(C3CCOCC3)ncc2c1=O [Example 59, 7-ethyl-6-methyl-3-(tetrahydro-2H-pyran-4-yl)imidazo[1,5-a]pyrazin-8(7H)-one] | – | 496 nM | 1740 nM | – | 2330 nM | -13% | – | –
10 | Cc1cn2c(C3CCOCC3)ncc2c(=O)n1Cc1ccccc1C#N [Example 64, 2-((6-methyl-8-oxo-3-(tetrahydro-2H-pyran-4-yl)imidazo[1,5-a]pyrazin-7(8H)-yl)methyl)benzonitrile] | – | 528 nM | 103 nM | – | 624 nM | 11% | – | –
11 | COCC(C)(C)c1ncc2c(=O)n(Cc3ccc(OC)cc3)c(C)cn12 [Example 76, 3-(1-methoxy-2-methylpropan-2-yl)-7-(4-methoxybenzyl)-6-methylimidazo[1,5-a]pyrazin-8(7H)-one] | – | 44 nM | 126 nM | – | 122 nM | -14% | – | –
12 | Cc1cn2c(C3CCOCC3)ncc2c(=O)n1Cc1ccc(O)cc1 [Example 53, 7-(4-hydroxybenzyl)-6-methyl-3-(tetrahydro-2H-pyran-4-yl)imidazo[1,5-a]pyrazin-8(7H)-one] | – | 35 nM | 84 nM | – | 401 nM | -41% | – | –
13 | COc1ccc(Cn2c(C)cn3c(C4CC(C)OC(C)C4)ncc3c2=O)cc1 (stereo not drawn) [Example 84, 3-(2,6-dimethyltetrahydro-2H-pyran-4-yl)-7-(4-methoxybenzyl)-6-methylimidazo[1,5-a]pyrazin-8(7H)-one] | – | 103 nM | 337 nM | – | 627 nM | -5% | – | –
14 | Cc1ccc(Cn2c(C)cn3c(C4CCOCC4)ncc3c2=O)cc1 [Example 22, 6-Methyl-7-(4-methylbenzyl)-3-(tetrahydro-2H-pyran-4-yl)imidazo[1,5-a]pyrazin-8(7H)-one] | – | 28 nM | 67 nM | – | 75 nM | 50% | – | –
15 | Cc1cn2c(C3(C)CCOCC3)ncc2c(=O)n1Cc1cccc(F)c1 [Example 26, 7-(3-fluorobenzyl)-6-methyl-3-(4-methyltetrahydro-2H-pyran-4-yl)imidazo[1,5-a]pyrazin-8(7H)-one] | – | 218 nM | 47 nM | – | 234 nM | -2% | – | –

These reach a lower IC50 (PDE1C). Values come first.

Row | % inhibition of PDE9 at 10 microM (PDE9) | IC50 (PDE1B) | IC50 (PDE1C) | PDE1A, % inhibition (at 1 μM) (PDE1A; at 1 μM) | IC50 (PDE1A) | inhibition at 10 µM (PDE9) | inhibition at 1 µM (PDE1B; read-out: PDE1B, % inhibition (at 1 μM)) | percent inhibition of PDE1A at 2 µM (PDE1A; at 2 μM, % sign not given) | SMILES
16 | 11% | 223 nM | 43 nM | – | 306 nM | – | – | – | Cc1cn2c([C@@H]3CCCOC3)ncc2c(=O)n1Cc1cccc(F)c1 (single isomer, unassigned; isomer 1) [100, isomer 1]
17 | – | 16 nM | 38 nM | – | 50 nM | 12% | – | – | Cc1cn2c(C3CCOCC3)ncc2c(=O)n1Cc1ccc2c(c1)OCO2 [Example 50, 7-(benzo[d][1,3]dioxol-5-ylmethyl)-6-methyl-3-(tetrahydro-2H-pyran-4-yl)imidazo[1,5-a]pyrazin-8(7H)-one]
18 | – | 32 nM | 32 nM | – | 120 nM | 7% | – | – | CCCc1ncc2c(=O)n(CC3CCCCC3)c(C)cn12 [Example 85, 7-(cyclohexylmethyl)-6-methyl-3-propylimidazo[1,5-a]pyrazin-8(7H)-one]
19 | 5% | 138 nM | 31 nM | – | 347 nM | – | – | – | Cc1cn2c([C@H]3CCOC3)ncc2c(=O)n1Cc1cccc(F)c1 (single isomer, unassigned; isomer 2) [31, isomer 2]
20 | – | 195 nM | 30 nM | – | 242 nM | -14% | – | – | Cc1ccccc1Cn1c(C)cn2c(C3CCOCC3)ncc2c1=O [Example 21, 6-Methyl-7-(2-methylbenzyl)-3-(tetrahydro-2H-pyran-4-yl)imidazo[1,5-a]pyrazin-8(7H)-one]
21 | – | 17 nM | 28 nM | – | 29 nM | -11% | – | – | COc1ccc(Cn2c(C)cn3c([C@@]4(C)C[C@@H]5CC[C@H]4O5)ncc3c2=O)cc1 [Example 70, 7-(4-methoxybenzyl)-6-methyl-3-((1R,2R,4S)-2-methyl-7-oxabicyclo[2.2.1]heptan-2-yl)imidazo[1,5-a]pyrazin-8(7H)-one]
22 | 9% | 134 nM | 27 nM | – | 241 nM | – | – | – | Cc1cn2c(N3CCC4OCCC43)ncc2c(=O)n1Cc1cccc(F)c1 (single isomer, unassigned; isomer 1) [99, isomer 1]
23 | – | 43 nM | 17 nM | – | 38 nM | -1% | – | – | Cc1cn2c(C3CCOCC3)ncc2c(=O)n1Cc1ccc(F)cc1 [Example 24, 7-(4-Fluorobenzyl)-6-methyl-3-(tetrahydro-2H-pyran-4-yl)imidazo[1,5-a]pyrazin-8(7H)-one]
24 | – | 120 nM | 14 nM | – | 108 nM | 18% | – | – | Cc1cn2c(C3CCOCC3)ncc2c(=O)n1Cc1cccc(F)c1 [Example 5, 7-(3-Fluorobenzyl)-6-methyl-3-(tetrahydro-2H-pyran-4-yl)imidazo[1,5-a]pyrazin-8(7H)-one]
25 | – | 57 nM | 12 nM | – | 85 nM | 19% | – | – | Cc1cn2c(C3CCOCC3)ncc2c(=O)n1Cc1ccccc1 [Example 16, 7-Benzyl-6-methyl-3-(tetrahydro-2H-pyran-4-yl)imidazo[1,5-a]pyrazin-8(7H)-one]
26 | – | 53 nM | 12 nM | – | 62 nM | 23% | – | – | CCc1cn2c(C3CCOCC3)ncc2c(=O)n1Cc1cccc(F)c1 [Example 54, 6-ethyl-7-(3-fluorobenzyl)-3-(tetrahydro-2H-pyran-4-yl)imidazo[1,5-a]pyrazin-8(7H)-one]
27 | – | 14 nM | 11 nM | – | 51 nM | -14% | – | – | O=c1c2cnc(C3CCOCC3)n2cc(Cc2ccccc2)n1Cc1cccc(F)c1 [Example 2, 6-Benzyl-7-(3-fluorobenzyl)-3-(tetrahydro-2H-pyran-4-yl)imidazo[1,5-a]pyrazin-8(7H)-one]
28 | – | 32 nM | 9 nM | – | 105 nM | 6% | – | – | CCc1cn2c(C3CCOCC3)ncc2c(=O)n1Cc1ccccc1 [Example 43, 7-benzyl-6-ethyl-3-(tetrahydro-2H-pyran-4-yl)imidazo[1,5-a]pyrazin-8(7H)-one]
29 | – | 6 nM | 5 nM | – | 10 nM | 11% | – | – | Cc1cn2c(C3CCOCC3)ncc2c(=O)n1CC1CCCCCC1 [Example 65, 7-(cycloheptylmethyl)-6-methyl-3-(tetrahydro-2H-pyran-4-yl)imidazo[1,5-a]pyrazin-8(7H)-one]
30 | −3% | 6 nM | 4 nM | – | 7 nM | – | – | – | Cc1cn2c(C3CCOCC3)ncc2c(=O)n1C[C@H]1CC[C@@H](C)CC1 [66, cis]
